This is an account of results in US20230295119A1, “SUBSTITUTED PYRIDINES FOR THE TREATMENT OF INFLAMMATORY DISEASES” (GOSSAMER BIO SERVICES, INC., priority 2020, published 2023).

One experiment addresses TYK2 JH2 domain (Homo sapiens (Human), UniProt P29597). The experiment is described as follows: TYK2 JH2 NanoBRET assay. It is filed as binding. The conditions noted are these: Table 20, read-out: TYK2 IC50. The essentials:
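HEK293T cells transiently expressing NanoLuc-TYK2 JH2 fusion, incubated 2 h with compound and NanoBRET K10 tracer (0.5 µM final). Target engagement read as acceptor/donor BRET ratio after Nano-Glo substrate plus extracellular NanoLuc inhibitor.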
In general terms: In BRET a luciferase serves as donor, and the signal depends on an acceptor being close.

Another experiment deals with human JAK1 (Homo sapiens (Human), UniProt P23458). The experiment is described as follows: JAK1 TR-FRET kinase assay. To be noted: TR-FRET, JAK1 2.5 nM. It is filed as biochemical. In general terms: Time-resolved FRET reads energy transfer from a long-lived donor to a nearby acceptor.
Sequence of human JAK1 (P23458 whole entry): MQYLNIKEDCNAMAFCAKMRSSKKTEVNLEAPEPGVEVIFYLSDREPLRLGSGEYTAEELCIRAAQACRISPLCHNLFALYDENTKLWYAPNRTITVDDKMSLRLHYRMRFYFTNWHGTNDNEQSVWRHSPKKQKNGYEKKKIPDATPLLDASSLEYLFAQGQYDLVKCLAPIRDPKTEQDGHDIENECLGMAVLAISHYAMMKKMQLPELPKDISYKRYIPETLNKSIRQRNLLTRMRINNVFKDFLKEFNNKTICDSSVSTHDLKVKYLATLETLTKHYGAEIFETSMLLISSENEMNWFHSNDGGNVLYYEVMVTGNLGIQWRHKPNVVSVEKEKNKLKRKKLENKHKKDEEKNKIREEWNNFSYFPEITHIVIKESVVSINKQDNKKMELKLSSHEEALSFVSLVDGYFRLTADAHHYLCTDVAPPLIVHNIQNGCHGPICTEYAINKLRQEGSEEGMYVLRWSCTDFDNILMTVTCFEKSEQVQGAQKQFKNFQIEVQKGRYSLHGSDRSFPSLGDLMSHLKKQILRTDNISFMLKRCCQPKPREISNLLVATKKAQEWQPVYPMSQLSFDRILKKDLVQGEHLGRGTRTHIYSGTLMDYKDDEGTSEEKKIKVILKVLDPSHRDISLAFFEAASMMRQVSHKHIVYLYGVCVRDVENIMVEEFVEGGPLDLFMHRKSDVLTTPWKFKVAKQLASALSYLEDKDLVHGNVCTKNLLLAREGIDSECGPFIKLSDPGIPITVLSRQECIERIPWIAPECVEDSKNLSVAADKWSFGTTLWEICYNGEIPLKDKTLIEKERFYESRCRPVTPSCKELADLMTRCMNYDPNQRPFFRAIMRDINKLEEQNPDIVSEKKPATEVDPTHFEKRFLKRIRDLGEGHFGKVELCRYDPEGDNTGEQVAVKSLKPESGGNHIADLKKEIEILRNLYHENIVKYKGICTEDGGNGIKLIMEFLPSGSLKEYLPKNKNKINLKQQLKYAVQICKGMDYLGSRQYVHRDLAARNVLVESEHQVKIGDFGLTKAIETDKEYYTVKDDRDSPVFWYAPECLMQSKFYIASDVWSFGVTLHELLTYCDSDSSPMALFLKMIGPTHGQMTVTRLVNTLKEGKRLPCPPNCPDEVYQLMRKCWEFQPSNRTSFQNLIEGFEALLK
A further experiment concerns the target human JAK2 (Homo sapiens (Human), UniProt O60674). The experiment is described as follows: JAK2 TR-FRET kinase assay. It is filed as biochemical. To be noted: JAK2 0.025 nM.
In another experiment the target is human JAK3 (Homo sapiens (Human), UniProt P52333). As to the kind of experiment: JAK3 TR-FRET kinase assay. The conditions noted are these: JAK3 0.0125 nM. It is filed as biochemical.
Sequence of human JAK3 (P52333 whole entry): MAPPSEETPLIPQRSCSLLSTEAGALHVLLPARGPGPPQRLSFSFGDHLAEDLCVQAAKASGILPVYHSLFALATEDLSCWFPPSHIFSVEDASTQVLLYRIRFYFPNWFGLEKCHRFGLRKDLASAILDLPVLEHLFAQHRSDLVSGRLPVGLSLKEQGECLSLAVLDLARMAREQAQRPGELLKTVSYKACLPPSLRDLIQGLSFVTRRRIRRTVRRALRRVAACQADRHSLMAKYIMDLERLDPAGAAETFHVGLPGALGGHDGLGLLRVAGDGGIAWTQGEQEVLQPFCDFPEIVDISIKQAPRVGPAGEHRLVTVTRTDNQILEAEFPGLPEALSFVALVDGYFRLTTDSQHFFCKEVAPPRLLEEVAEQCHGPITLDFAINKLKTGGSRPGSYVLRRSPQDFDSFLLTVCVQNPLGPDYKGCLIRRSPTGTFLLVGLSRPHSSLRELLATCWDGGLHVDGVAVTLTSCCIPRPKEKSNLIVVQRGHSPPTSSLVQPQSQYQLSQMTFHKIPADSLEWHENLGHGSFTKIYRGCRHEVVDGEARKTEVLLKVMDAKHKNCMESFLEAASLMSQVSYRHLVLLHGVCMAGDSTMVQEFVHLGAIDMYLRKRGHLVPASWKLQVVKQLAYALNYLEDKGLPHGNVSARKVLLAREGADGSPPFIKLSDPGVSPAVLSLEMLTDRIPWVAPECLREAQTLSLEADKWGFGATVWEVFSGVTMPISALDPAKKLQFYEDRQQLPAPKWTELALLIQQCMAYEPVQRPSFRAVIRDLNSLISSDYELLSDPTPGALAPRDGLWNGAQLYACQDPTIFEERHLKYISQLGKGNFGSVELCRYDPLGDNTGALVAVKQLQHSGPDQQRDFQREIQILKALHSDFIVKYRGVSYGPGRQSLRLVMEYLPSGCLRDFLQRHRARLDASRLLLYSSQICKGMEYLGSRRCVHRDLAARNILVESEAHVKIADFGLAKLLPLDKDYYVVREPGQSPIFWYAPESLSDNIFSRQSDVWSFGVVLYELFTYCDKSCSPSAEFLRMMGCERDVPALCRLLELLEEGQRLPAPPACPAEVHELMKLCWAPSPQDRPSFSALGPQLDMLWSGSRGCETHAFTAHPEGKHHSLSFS

Bounds are passed on as bounds.

Sequence of human JAK2 (O60674 whole entry): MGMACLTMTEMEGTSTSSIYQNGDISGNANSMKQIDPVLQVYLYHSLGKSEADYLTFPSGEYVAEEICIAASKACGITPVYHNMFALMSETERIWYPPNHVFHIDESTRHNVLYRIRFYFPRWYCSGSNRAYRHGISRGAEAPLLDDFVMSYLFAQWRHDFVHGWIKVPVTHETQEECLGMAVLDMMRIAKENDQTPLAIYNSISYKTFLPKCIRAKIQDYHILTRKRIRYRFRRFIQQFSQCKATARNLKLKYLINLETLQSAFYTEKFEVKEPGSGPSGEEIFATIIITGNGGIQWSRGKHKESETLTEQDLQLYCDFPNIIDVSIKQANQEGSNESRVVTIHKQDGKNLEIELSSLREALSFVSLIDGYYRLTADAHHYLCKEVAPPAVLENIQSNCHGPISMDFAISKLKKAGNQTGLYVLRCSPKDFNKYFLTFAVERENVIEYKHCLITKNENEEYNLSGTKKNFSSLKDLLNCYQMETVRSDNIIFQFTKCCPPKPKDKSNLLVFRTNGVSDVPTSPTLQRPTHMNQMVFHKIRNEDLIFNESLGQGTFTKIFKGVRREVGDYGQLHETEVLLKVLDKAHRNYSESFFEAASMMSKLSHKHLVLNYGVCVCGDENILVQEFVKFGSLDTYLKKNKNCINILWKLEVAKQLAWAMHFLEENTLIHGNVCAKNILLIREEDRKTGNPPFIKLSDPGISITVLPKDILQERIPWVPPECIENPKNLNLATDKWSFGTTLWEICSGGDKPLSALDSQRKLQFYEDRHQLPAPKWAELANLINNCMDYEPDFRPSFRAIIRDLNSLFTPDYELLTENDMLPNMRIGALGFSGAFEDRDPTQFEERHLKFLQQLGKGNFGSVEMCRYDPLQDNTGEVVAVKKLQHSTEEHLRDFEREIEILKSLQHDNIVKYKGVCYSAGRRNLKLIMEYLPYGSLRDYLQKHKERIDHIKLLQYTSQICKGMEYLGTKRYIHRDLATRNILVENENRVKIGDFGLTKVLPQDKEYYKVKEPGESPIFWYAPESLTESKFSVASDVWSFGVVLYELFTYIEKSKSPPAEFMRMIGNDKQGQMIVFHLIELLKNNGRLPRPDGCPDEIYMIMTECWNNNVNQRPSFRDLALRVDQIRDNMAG
Sequence of TYK2 JH2 domain (P29597 589-875): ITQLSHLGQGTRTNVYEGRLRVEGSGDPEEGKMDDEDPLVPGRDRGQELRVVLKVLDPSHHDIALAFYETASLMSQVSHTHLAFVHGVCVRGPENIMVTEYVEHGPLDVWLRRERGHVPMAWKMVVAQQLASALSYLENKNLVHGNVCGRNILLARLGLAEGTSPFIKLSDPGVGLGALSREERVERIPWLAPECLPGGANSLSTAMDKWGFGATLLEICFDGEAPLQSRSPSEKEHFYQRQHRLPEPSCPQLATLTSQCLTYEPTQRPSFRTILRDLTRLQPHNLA

The IC50 is the concentration needed to halve the response being measured. Turning to `CCC(=O)c1cnc(Nc2cnc(OCCn3cnc(C)c3)cn2)cc1Nc1cccc(-c2ncn(C)n2)c1OC` [Compound 18HHH], the IC50 on TYK2 JH2 domain is 5 to 50 nM; on human JAK1 it was at least 500 nM; against human JAK2, at least 500 nM; at human JAK3, at least 500 nM.
As to `CCC(=O)c1cnc(Nc2cnc(C(N)C(F)(F)F)cn2)cc1Nc1cccc(-c2ncn(C)n2)c1OC` (stereo not drawn) [Compound 9TTT], the IC50 at TYK2 JH2 domain is 5 to 50 nM; against human JAK1 it was at least 500 nM; against human JAK2, at least 500 nM; on human JAK3, at least 500 nM.
Consider `CCC(=O)c1cnc(Nc2ccn(CC3CCO3)n2)cc1Nc1cccc(-c2ncn(C)n2)c1OC` (stereo not drawn) [Compound 21V], for which the IC50 is 50 to 500 nM at TYK2 JH2 domain, at least 500 nM at human JAK1, at least 500 nM on human JAK2 and at least 500 nM against human JAK3.
Take `CCC(=O)c1cnc(Nc2ccc(C3(NC)CC3)cn2)cc1Nc1cccc(-c2ncn(C)n2)c1OC` [Compound 9P]: the IC50 at TYK2 JH2 domain is under 5 nM; against human JAK1, at least 500 nM; on human JAK2, at least 500 nM; at human JAK3 it was at least 500 nM.
In the case of `CCC(=O)c1cnc(Nc2ccc(CN(C)C)nn2)cc1Nc1cccc(-c2ncn(C)n2)c1OC` [Compound 9HHH], the IC50 is 5 to 50 nM on TYK2 JH2 domain, at least 500 nM against human JAK1, at least 500 nM on human JAK2 and at least 500 nM against human JAK3.
Take `CCC(=O)c1cnc(Nc2ncc(OCC3COC3)cc2F)cc1Nc1cccc(-c2ncn(C)n2)c1OC` [Compound 18CCCC]: the IC50 is 50 to 500 nM on TYK2 JH2 domain, at least 500 nM against human JAK1, at least 500 nM on human JAK2 and at least 500 nM at human JAK3.
`CCC(=O)c1cnc(Nc2csc(CN3CCCC3)n2)cc1Nc1cccc(-c2ncn(C)n2)c1OC` [Compound 21F]: the IC50 on TYK2 JH2 domain was 5 to 50 nM; against human JAK1, at least 500 nM; at human JAK2, at least 500 nM; at human JAK3, at least 500 nM.
As to `CCC(=O)c1cnc(Nc2ccc([C@@H](C)N3CC[C@@H](O)C3)cn2)cc1Nc1cccc(-c2ncn(C)n2)c1OC` [Compound 9OO], the IC50 at TYK2 JH2 domain was under 5 nM; against human JAK1 it was at least 500 nM; on human JAK2, 50 to 500 nM; against human JAK3 it was 50 to 500 nM.
Regarding `CCC(=O)c1cnc(NC(=O)CCCN2CCCC2)cc1Nc1cccc(-c2ncn(C)n2)c1OC` [Compound 23E], the IC50 on TYK2 JH2 domain is 50 to 500 nM; on human JAK1, at least 500 nM; on human JAK2, at least 500 nM; against human JAK3 it was at least 500 nM.
As to `CCC(=O)c1cnc(Nc2cnc(O[C@@H]3CCCN(C)C3)cn2)cc1Nc1cccc(-c2ncn(C)n2)c1OC` [Compound 18PPP], the half-inhibitory concentration (IC50) on TYK2 JH2 domain is 5 to 50 nM; at human JAK1, at least 500 nM; against human JAK2, at least 500 nM; against human JAK3, at least 500 nM.
Turning to `CCC(=O)c1cnc(Nc2ccc(OC[C@H](O)CO)cn2)cc1Nc1cccc(-c2ncn(C)n2)c1OC` [Compound 18G], the IC50 was 5 to 50 nM at TYK2 JH2 domain, at least 500 nM against human JAK1, at least 500 nM against human JAK2 and at least 500 nM at human JAK3.
Turning to `CCC(=O)c1cnc(Nc2cnc(OCCN3CCCC3)cn2)cc1Nc1cccc(-c2ncn(C)n2)c1OC` [Compound 18VV], the IC50 at TYK2 JH2 domain is under 5 nM; against human JAK1, at least 500 nM; at human JAK2 it was at least 500 nM; against human JAK3, at least 500 nM.
Consider `CCC(=O)c1cnc(Nc2cnc(OCCCN3CCCC3)cn2)cc1Nc1cccc(-c2ncn(C)n2)c1OC` [Compound 18WW], for which the half-maximal inhibitory concentration (IC50) on TYK2 JH2 domain is under 5 nM; on human JAK1 it was at least 500 nM; against human JAK2, at least 500 nM; against human JAK3, at least 500 nM.
Turning to `CCC(=O)c1cnc(Nc2ccc(O[C@@H]3CCN(C)C3)c(C)n2)cc1Nc1cccc(-c2ncn(C)n2)c1OC` [Compound 18YYY], the IC50 is under 5 nM at TYK2 JH2 domain, at least 500 nM against human JAK1, at least 500 nM at human JAK2 and 50 to 500 nM against human JAK3.
As for `CCC(=O)c1cnc(Nc2ccnc(OC3CCN(C)CC3)n2)cc1Nc1cccc(-c2ncn(C)n2)c1OC` [Compound 18II], the IC50 at TYK2 JH2 domain was 5 to 50 nM; on human JAK1, at least 500 nM; at human JAK2 it was at least 500 nM; against human JAK3, at least 500 nM.
As for `CCC(=O)c1cnc(Nc2ccc(C(C)NCC(F)(F)F)cn2)cc1Nc1cccc(-c2ncn(C)n2)c1OC` (stereo not drawn) [Compound 9Z], the IC50 at TYK2 JH2 domain is 5 to 50 nM; on human JAK1, at least 500 nM; on human JAK2 it was 50 to 500 nM; at human JAK3 it was at least 500 nM.
Take `CCC(=O)c1cnc(NC(=O)C2CC2)cc1Nc1cc(CN(C)C)cc(-c2ncn(C)n2)c1OC` [Compound 25C]: the IC50 at TYK2 JH2 domain, on human JAK1, at human JAK2 and against human JAK3 was at least 500 nM throughout.
On to `CCC(=O)c1cnc(Nc2cnc(OCCNC)cn2)cc1Nc1cccc(-c2ncn(C)n2)c1OC` [Compound 18NN], for which the IC50 on TYK2 JH2 domain is under 5 nM; against human JAK1, at least 500 nM; on human JAK2, at least 500 nM; against human JAK3 it was at least 500 nM.
For the compound `CCC(=O)c1cnc(Nc2ccc(CN3CC(C#N)C3)cn2)cc1Nc1cccc(-c2ncn(C)n2)c1OC` [Compound 9FF], the IC50 is 5 to 50 nM at TYK2 JH2 domain, at least 500 nM against human JAK1, at least 500 nM against human JAK2 and 50 to 500 nM on human JAK3.
Regarding `CCC(=O)c1cnc(Nc2ccc(CN(C)C)c(C(F)(F)F)n2)cc1Nc1cccc(-c2ncn(C)n2)c1OC` [Compound 9RRRR], the IC50 was 5 to 50 nM on TYK2 JH2 domain, at least 500 nM on human JAK1, at least 500 nM at human JAK2 and at least 500 nM against human JAK3.
Turning to `CCC(=O)c1cnc(Nc2ccn([C@H]3C[C@H](C#N)C3)n2)cc1Nc1cccc(-c2ncn(C)n2)c1OC` [Compound 210], the half-maximal inhibitory concentration (IC50) on TYK2 JH2 domain was 5 to 50 nM; against human JAK1, at least 500 nM; against human JAK2, at least 500 nM; on human JAK3 it was at least 500 nM.
`CCC(=O)c1cnc(Nc2cnc(O[C@H]3CCN(C)C[C@@H]3F)cn2)cc1Nc1cccc(-c2ncn(C)n2)c1OC` [Compound 18TTT]: the IC50 was 5 to 50 nM on TYK2 JH2 domain, at least 500 nM at human JAK1, at least 500 nM on human JAK2 and at least 500 nM against human JAK3.
Regarding `CCC(=O)c1cnc(NC(=O)CCNC)cc1Nc1cccc(-c2ncn(C)n2)c1OC` [Compound 23H], the IC50 at TYK2 JH2 domain was 50 to 500 nM; against human JAK1 it was at least 500 nM; against human JAK2, at least 500 nM; against human JAK3, at least 500 nM.
As for `CCC(=O)c1cnc(Nc2ccn(CC3(C)COC3)n2)cc1Nc1cccc(-c2ncn(C)n2)c1OC` [Compound 21Q], the IC50 was 50 to 500 nM at TYK2 JH2 domain, at least 500 nM on human JAK1, at least 500 nM against human JAK2 and 50 to 500 nM against human JAK3.
`CCC(=O)c1cnc(Nc2ccc(CNC)nn2)cc1Nc1cccc(-c2ncn(C)n2)c1OC` [Compound 9GGG]: the IC50 on TYK2 JH2 domain was 5 to 50 nM; against human JAK1 it was at least 500 nM; against human JAK2, at least 500 nM; on human JAK3, at least 500 nM.
Regarding `CCC(=O)c1cnc(Nc2ncc(CS(C)(=O)=O)cc2F)cc1Nc1cccc(-c2ncn(C)n2)c1OC` [Compound 13AA], the IC50 is 5 to 50 nM on TYK2 JH2 domain, at least 500 nM against human JAK1, at least 500 nM at human JAK2 and at least 500 nM against human JAK3.
With `CCC(=O)c1cnc(Nc2ccc(C(C)NC)cn2)cc1Nc1cccc(-c2ncn(C)n2)c1OC` (stereo not drawn) [Compound 9H], the half-maximal inhibitory concentration (IC50) at TYK2 JH2 domain is under 5 nM; at human JAK1, at least 500 nM; against human JAK2 it was at least 500 nM; against human JAK3 it was at least 500 nM.
For the compound `CCC(=O)c1cnc(Nc2ccc(OCCN3CCCC3)nn2)cc1Nc1cccc(-c2ncn(C)n2)c1OC` [Compound 18CC], the half-maximal inhibitory concentration (IC50) is under 5 nM on TYK2 JH2 domain, at least 500 nM on human JAK1, at least 500 nM against human JAK2 and at least 500 nM against human JAK3.
In the case of `CCC(=O)c1cnc(Nc2cnc(CN3CCN(C)CC3)cn2)cc1Nc1cccc(-c2ncn(C)n2)c1OC` [Compound 9BBBB], the IC50 was under 5 nM on TYK2 JH2 domain, at least 500 nM on human JAK1, at least 500 nM against human JAK2 and at least 500 nM against human JAK3.
Take `CCC(=O)c1cnc(Nc2ccc([C@H](C)N(C)C)cn2)cc1Nc1cccc(-c2ncn(C)n2)c1OC` [Compound 9K]: the IC50 at TYK2 JH2 domain is under 5 nM; at human JAK1 it was at least 500 nM; on human JAK2, at least 500 nM; at human JAK3, at least 500 nM.
As to `CCC(=O)c1cnc(Nc2cc(CN3CCCC3)sn2)cc1Nc1cccc(-c2ncn(C)n2)c1OC` [Compound 21I], the IC50 is under 5 nM on TYK2 JH2 domain, at least 500 nM at human JAK1, 50 to 500 nM against human JAK2 and 50 to 500 nM against human JAK3.
In the case of `CCC(=O)c1cnc(Nc2ccc(CS(C)(=N)=O)cn2)cc1Nc1cccc(-c2ncn(C)n2)c1OC` (stereo not drawn) [Compound 13F], the IC50 at TYK2 JH2 domain was 5 to 50 nM; at human JAK1, at least 500 nM; against human JAK2, at least 500 nM; at human JAK3, at least 500 nM.
For `CCC(=O)c1cnc(Nc2ccc(CCN3CCCC3)cn2)cc1Nc1cccc(-c2ncn(C)n2)c1OC` [Compound 11C], the half-inhibitory concentration (IC50) on TYK2 JH2 domain is under 5 nM; against human JAK1, at least 500 nM; against human JAK2, at least 500 nM; against human JAK3, at least 500 nM.
As for `CCC(=O)c1cnc(Nc2ccc(O[C@H]3CN(C)C[C@@H]3F)cn2)cc1Nc1cccc(-c2ncn(C)n2)c1OC` [Compound 18UUU], the IC50 was under 5 nM on TYK2 JH2 domain, at least 500 nM at human JAK1, at least 500 nM against human JAK2 and at least 500 nM against human JAK3.
For `CCC(=O)c1cnc(Nc2ccc(CN3[C@H](C)COC[C@@H]3C)cn2)cc1Nc1cccc(-c2ncn(C)n2)c1OC` [Compound 9TT], the half-maximal inhibitory concentration (IC50) is under 5 nM on TYK2 JH2 domain, at least 500 nM on human JAK1, 50 to 500 nM against human JAK2 and 50 to 500 nM against human JAK3.
`CCC(=O)c1cnc(Nc2ccc(CN3CCCC3)nn2)cc1Nc1cccc(-c2ncn(C)n2)c1OC` [Compound 9OOO]: the half-maximal inhibitory concentration (IC50) at TYK2 JH2 domain was 5 to 50 nM; at human JAK1, at least 500 nM; at human JAK2 it was at least 500 nM; on human JAK3, at least 500 nM.
